# Experimental data from the supplement of paper PMC10307832.
# Tests used:
# Assay in all cases: relative viability (nuclei count vs DMSO), 5 days (fraction); higher = more cells survive
# [1] = compound: C1CC(C1)(C(=O)O)C(=O)O.[NH2-].[NH2-].[Pt+2] [Carboplatin] + COc1cc2c(Oc3ccc(NC(=O)C4(C(=O)Nc5ccc(F)cc5)CC4)cc3F)ccnc2cc1OCCCN1CCOCC1 [Foretinib] (partner 0.25 µM)
# Method in brief: (§1)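 A single step with final 0.05% Triton X-100, 1% formaldehyde and 1 ug/ml Hoechst fixed the cells and stained nuclei 5 days after treatment. Lung cancer cell lines in 1536-well plates had been treated by pin tool the day after seeding with one drug alone or a fixed anchor-drug dose plus five library-drug doses (not always all listed) in √10 steps, and nuclei were counted on 4× images. Relative viability is the ratio of nuclei in treated wells to nuclei in vehicle wells, taken as the median of duplicate plates.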
# [2] = compound: CC[C@H](C)N1C=C(C2=C(C=C(C=C21)C3=CN=C(C=C3)N4CCNCC4)C(=O)NCC5=C(C=C(NC5=O)C)C)C [GSK126] + Nc1nc2[nH]cc(CCc3ccc(C(=O)N[C@@H](CCC(=O)O)C(=O)O)cc3)c2c(=O)[nH]1 [Pemetrexed] (partner 0.2 µM)
# Method in brief: as §1
# [3] = compound: NS(=O)(=O)OC[C@@H]1C[C@@H](n2ccc3c(N[C@H]4CCc5ccccc54)ncnc32)C[C@@H]1O [MLN4924] + Cc1cc(Nc2cc(N3CCN(C)CC3)nc(Sc3ccc(NC(=O)C4CC4)cc3)n2)n[nH]1 [Tozasertib] (partner 0.1 µM)
# Method in brief: as §1
# [4] = compound: NS(=O)(=O)OC[C@@H]1C[C@@H](n2ccc3c(N[C@H]4CCc5ccccc54)ncnc32)C[C@@H]1O [MLN4924] + Nc1ncn([C@H]2C[C@H](O)[C@@H](CO)O2)c(=O)n1 [Decitabine] (partner 2 µM)
# Method in brief: as §1
Cell Line,relative viability ([1]; first compound 0.08 µM),relative viability ([1]; first compound 0.253 µM),relative viability ([1]; first compound 0.8 µM),relative viability ([1]; first compound 2.53 µM),relative viability ([1]; first compound 8 µM),relative viability ([2]; first compound 0.08 µM),relative viability ([2]; first compound 0.253 µM),relative viability ([2]; first compound 0.8 µM),relative viability ([2]; first compound 2.53 µM),relative viability ([2]; first compound 8 µM),relative viability ([3]; first compound 0.04 µM),relative viability ([3]; first compound 0.1265 µM),relative viability ([3]; first compound 0.4 µM),relative viability ([3]; first compound 1.265 µM),relative viability ([3]; first compound 4 µM),relative viability ([4]; first compound 0.04 µM),relative viability ([4]; first compound 0.1265 µM),relative viability ([4]; first compound 0.4 µM),relative viability ([4]; first compound 1.265 µM),relative viability ([4]; first compound 4 µM)
NCI-H2087,1.18,1.14,1.15,0.957,0.757,0.611,0.666,0.685,0.645,0.648,0.189,0.257,0.244,0.0576,0.0697,0.197,0.248,0.253,0.0811,0.061
NCI-H1793,0.939,0.773,0.882,0.718,0.724,0.981,0.825,0.876,0.916,0.932,0.337,0.356,0.368,0.252,0.168,0.49,0.463,0.482,0.318,0.195
HCC-827,1.05,1.03,1.01,0.995,0.912,0.264,0.285,0.249,0.27,0.287,0.415,0.347,0.408,0.165,0.167,0.336,0.308,0.218,0.15,0.2
NCI-H1395,1.03,1.03,0.805,0.709,0.726,0.942,0.773,0.867,0.988,0.759,0.72,0.609,0.475,0.397,0.337,0.704,0.596,0.461,0.359,0.346
NCI-H23,1.02,1.01,0.886,0.846,0.826,0.773,0.735,0.687,0.706,0.631,0.367,0.388,0.235,0.176,0.141,0.344,0.329,0.276,0.249,0.21
HARA,1.05,1.03,0.83,0.798,0.744,0.247,0.258,0.231,0.215,0.215,0.101,0.0797,0.0797,0.0484,0.065,0.496,0.379,0.379,0.203,0.156
